Source: ChEMBL document CHEMBL1201862, “PubChem BioAssay data set” (2004)
Where a name gives a salt, the structure may show the parent alone.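 Cells were grown in 96-well plates and exposed to each compound for 48 hours at five concentrations; endpoints were interpolated linearly between bracketing concentrations, or set to the highest concentration if not reached. At the GI50, growth is halved.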 Active and inactive are the calls of the source. Cut-off read from the data, not from the text of the source: active = GI50 up to about 1.1 µM and inactive = higher.

Experiments:
Assay in all cases: inhibition of tumour cell growth, NCI panel, 48 h
LOX IMVI = test system: LOX IMVI
SK-MEL-28 = test system: SK-MEL-28
UO-31 = test system: UO-31
BT-549 = test system: BT-549
U-251 = test system: U-251
786-0 = test system: 786-0
ACHN = test system: ACHN
OVCAR-3 = test system: OVCAR-3
DU-145 = test system: DU-145
OVCAR-4 = test system: OVCAR-4
CCRF-CEM = test system: CCRF-CEM
RPMI-8226 = test system: RPMI-8226
UACC-62 = test system: UACC-62
TK-10 = test system: TK-10
MOLT-4 = test system: MOLT-4
OVCAR-5 = test system: OVCAR-5
SK-MEL-2 = test system: SK-MEL-2
RXF 393 = test system: RXF 393
SNB-75 = test system: SNB-75
A498 = test system: A498

Compound | GI50 (LOX IMVI) | GI50 (SK-MEL-28) | GI50 (UO-31) | GI50 (BT-549) | GI50 (U-251) | GI50 (786-0) | GI50 (ACHN) | GI50 (OVCAR-3) | GI50 (DU-145) | GI50 (OVCAR-4) | GI50 (CCRF-CEM) | GI50 (RPMI-8226) | GI50 (UACC-62) | GI50 (TK-10) | GI50 (MOLT-4) | GI50 (OVCAR-5) | GI50 (SK-MEL-2) | GI50 (RXF 393) | GI50 (SNB-75) | GI50 (A498)
CP(=O)(O)C(N)c1ccccc1 (stereo not given) | > 100 µM (inactive) | > 100 µM (inactive) | > 100 µM (inactive) | > 100 µM (inactive) | > 100 µM (inactive) | > 100 µM (inactive) | > 100 µM (inactive) | > 100 µM (inactive) | > 100 µM (inactive) | > 100 µM (inactive) | > 100 µM (inactive) | > 100 µM (inactive) | > 100 µM (inactive) | > 100 µM (inactive) | > 100 µM (inactive) | > 100 µM (inactive) | – | – | – | –
CCOC(CN(C)C(=O)Nc1ccc(Cl)c(Cl)c1)OCC | > 10 µM (inactive) | > 10 µM (inactive) | > 10 µM (inactive) | – | > 10 µM (inactive) | > 10 µM (inactive) | > 10 µM (inactive) | > 10 µM (inactive) | > 10 µM (inactive) | > 10 µM (inactive) | > 10 µM (inactive) | > 10 µM (inactive) | > 10 µM (inactive) | > 10 µM (inactive) | > 10 µM (inactive) | – | > 10 µM (inactive) | > 10 µM (inactive) | > 10 µM (inactive) | > 10 µM (inactive)
Oc1c(N2CCOCC2)cc(-c2cc(N3CCOCC3)c(O)c3ccccc23)c2ccccc12 | 1.77 µM (inactive) | 1.75 µM (inactive) | 1.73 µM (inactive) | 1.77 µM (inactive) | 1.82 µM (inactive) | 1.63 µM (inactive) | 2.93 µM (inactive) | 2.47 µM (inactive) | – | 1.93 µM (inactive) | 1.48 µM (inactive) | – | 2.13 µM (inactive) | 12.9 µM (inactive) | 1.71 µM (inactive) | 2.86 µM (inactive) | 2.65 µM (inactive) | 1.56 µM (inactive) | 2.26 µM (inactive) | –
CN1CCOC1c1ccccc1O (stereo not given) | > 100 µM (inactive) | – | > 100 µM (inactive) | > 100 µM (inactive) | > 100 µM (inactive) | > 100 µM (inactive) | > 100 µM (inactive) | > 100 µM (inactive) | – | > 100 µM (inactive) | > 100 µM (inactive) | > 100 µM (inactive) | > 100 µM (inactive) | > 100 µM (inactive) | > 100 µM (inactive) | > 100 µM (inactive) | > 100 µM (inactive) | > 100 µM (inactive) | 85.3 µM (inactive) | > 100 µM (inactive)
COC(=O)CCC1(CCC(=O)OC)CCCCCCC(CCC(=O)OC)(CCC(=O)OC)C(=O)C1=O | > 100 µM (inactive) | > 100 µM (inactive) | 44.4 µM (inactive) | – | > 100 µM (inactive) | > 100 µM (inactive) | > 100 µM (inactive) | 55.3 µM (inactive) | > 100 µM (inactive) | – | – | < 0.01 µM (active) | > 100 µM (inactive) | > 100 µM (inactive) | – | > 100 µM (inactive) | > 100 µM (inactive) | > 100 µM (inactive) | 49.1 µM (inactive) | > 100 µM (inactive)
O=S(=O)(Oc1ccc2ccccc2c1-c1c(OS(=O)(=O)C(F)(F)F)ccc2ccccc12)C(F)(F)F | – | > 100 µM (inactive) | 37.8 µM (inactive) | > 100 µM (inactive) | 32.1 µM (inactive) | > 100 µM (inactive) | 2.75 µM (inactive) | 41.8 µM (inactive) | – | 4.2 µM (inactive) | 29.3 µM (inactive) | 27.5 µM (inactive) | > 100 µM (inactive) | – | 12.8 µM (inactive) | > 100 µM (inactive) | > 100 µM (inactive) | 43.4 µM (inactive) | > 100 µM (inactive) | 26.4 µM (inactive)
CCCCCCCCCCCCCCCCCc1nc(Cl)nc(Cl)c1Cl | > 100 µM (inactive) | > 100 µM (inactive) | > 100 µM (inactive) | – | > 100 µM (inactive) | > 100 µM (inactive) | > 100 µM (inactive) | > 100 µM (inactive) | > 100 µM (inactive) | > 100 µM (inactive) | 34.8 µM (inactive) | 24.4 µM (inactive) | > 100 µM (inactive) | > 100 µM (inactive) | 76.7 µM (inactive) | > 100 µM (inactive) | – | > 100 µM (inactive) | > 100 µM (inactive) | –
CCOC(=O)C(NC(C)=O)(Nc1ccc(S(N)(=O)=O)cc1)C(F)(F)F (stereo not given) | > 100 µM (inactive) | > 100 µM (inactive) | > 100 µM (inactive) | – | > 100 µM (inactive) | > 100 µM (inactive) | > 100 µM (inactive) | > 100 µM (inactive) | > 100 µM (inactive) | > 100 µM (inactive) | > 100 µM (inactive) | > 100 µM (inactive) | – | > 100 µM (inactive) | > 100 µM (inactive) | > 100 µM (inactive) | > 100 µM (inactive) | > 100 µM (inactive) | > 100 µM (inactive) | > 100 µM (inactive)
CC(CN1c2ccccc2Sc2ccccc21)N(C)C (stereo not given) [PROMETHAZINE HYDROCHLORIDE] | 18.9 µM (inactive) | 17.8 µM (inactive) | 17.9 µM (inactive) | – | 14.2 µM (inactive) | 14.8 µM (inactive) | 17 µM (inactive) | 16.5 µM (inactive) | 19.4 µM (inactive) | 16.4 µM (inactive) | 20.3 µM (inactive) | – | 19 µM (inactive) | – | 19.8 µM (inactive) | 18.2 µM (inactive) | 18 µM (inactive) | 20.8 µM (inactive) | 3.78 µM (inactive) | 19.6 µM (inactive)
CCCCCCCCCCCCCCCCOCC(Cl)COP(=O)(O)OP(=O)(O)OCC1OC(n2cnc3c(N)ncnc32)C(O)C1O (stereo not given) | 75.9 µM (inactive) | > 100 µM (inactive) | 61 µM (inactive) | > 100 µM (inactive) | > 100 µM (inactive) | > 100 µM (inactive) | > 100 µM (inactive) | > 100 µM (inactive) | – | > 100 µM (inactive) | > 100 µM (inactive) | > 100 µM (inactive) | > 100 µM (inactive) | > 100 µM (inactive) | > 100 µM (inactive) | 50.7 µM (inactive) | > 100 µM (inactive) | > 100 µM (inactive) | 31 µM (inactive) | > 100 µM (inactive)
CC1(C)CC(=O)C(=CNc2nc(-c3ccccc3)cs2)C(=O)C1 | > 100 µM (inactive) | 26.7 µM (inactive) | 20.7 µM (inactive) | – | 29.3 µM (inactive) | > 100 µM (inactive) | 40.5 µM (inactive) | 40.7 µM (inactive) | 57 µM (inactive) | 69.5 µM (inactive) | – | – | – | 24 µM (inactive) | 32.4 µM (inactive) | > 100 µM (inactive) | 34.7 µM (inactive) | – | 33.7 µM (inactive) | –
COCCOCN(C(=O)C1=CCC2(CC1)OCCO2)c1ccccc1I | > 50 µM (inactive) | > 50 µM (inactive) | > 50 µM (inactive) | – | > 50 µM (inactive) | > 50 µM (inactive) | > 50 µM (inactive) | > 50 µM (inactive) | > 50 µM (inactive) | > 50 µM (inactive) | > 50 µM (inactive) | > 50 µM (inactive) | > 50 µM (inactive) | > 50 µM (inactive) | > 50 µM (inactive) | > 50 µM (inactive) | > 50 µM (inactive) | – | > 50 µM (inactive) | > 50 µM (inactive)
O=C(N/C(=C/c1ccc(Cl)cc1)c1nc2ccccc2c(=O)n1Nc1ccc([N+](=O)[O-])cc1[N+](=O)[O-])c1ccccc1 | > 100 µM (inactive) | > 100 µM (inactive) | > 100 µM (inactive) | > 100 µM (inactive) | > 100 µM (inactive) | > 100 µM (inactive) | – | > 100 µM (inactive) | – | > 100 µM (inactive) | > 100 µM (inactive) | – | > 100 µM (inactive) | > 100 µM (inactive) | > 100 µM (inactive) | > 100 µM (inactive) | – | – | > 100 µM (inactive) | –
COS(=O)CCOC(=O)c1ccccc1SSc1ccccc1C(=O)OCCS(=O)OC (stereo not given) | 22.2 µM (inactive) | 30.7 µM (inactive) | 15.5 µM (inactive) | – | 69.7 µM (inactive) | 20.3 µM (inactive) | 43.7 µM (inactive) | 22.1 µM (inactive) | – | 16.4 µM (inactive) | 3.79 µM (inactive) | 18.9 µM (inactive) | 20.5 µM (inactive) | 81.8 µM (inactive) | 3.44 µM (inactive) | 40.9 µM (inactive) | 37.7 µM (inactive) | 14.2 µM (inactive) | 6.31 µM (inactive) | > 100 µM (inactive)
C/C(=C\[Si](C)(C)c1ccco1)C(C)(O)[C@H](C)O (stereo not given in full) | > 100 µM (inactive) | > 100 µM (inactive) | – | – | > 100 µM (inactive) | 44.9 µM (inactive) | 95.3 µM (inactive) | 54.5 µM (inactive) | 38.4 µM (inactive) | 2.9 µM (inactive) | 32.9 µM (inactive) | 30.8 µM (inactive) | > 100 µM (inactive) | 97.3 µM (inactive) | 33.4 µM (inactive) | > 100 µM (inactive) | 91.6 µM (inactive) | – | – | 76 µM (inactive)
CC1OCC2OC(C)OC(C3C4=C(CC(C)(C)CC4=O)OC4=C3C(=O)CC(C)(C)C4)C2O1 (stereo not given) | > 100 µM (inactive) | > 100 µM (inactive) | > 100 µM (inactive) | – | – | > 100 µM (inactive) | > 100 µM (inactive) | > 100 µM (inactive) | > 100 µM (inactive) | – | > 100 µM (inactive) | > 100 µM (inactive) | > 100 µM (inactive) | > 100 µM (inactive) | > 100 µM (inactive) | > 100 µM (inactive) | > 100 µM (inactive) | > 100 µM (inactive) | > 100 µM (inactive) | > 100 µM (inactive)
